The record followed here is patent publication US9376436B2, “2-(pyridin-2yl)-1, 7-diaza-spiro [4.4] nonane-6-one compound as voltage-gated sodium channels modulators” (CONVERGENCE PHARMACEUTICALS LIMITED, priority 2011, dated 2016).

Each structure is given as a SMILES string. Structures can show the parent of a compound that is named as a salt. Where two headings read alike, the source gives them in different places.

In this experiment the target is T1, hNaV1.7 (Homo sapiens, UniProt Q15858).
T1 construct: expressed in transfected cells; host or cells: HEK293
T1 sequence (Q15858 whole entry): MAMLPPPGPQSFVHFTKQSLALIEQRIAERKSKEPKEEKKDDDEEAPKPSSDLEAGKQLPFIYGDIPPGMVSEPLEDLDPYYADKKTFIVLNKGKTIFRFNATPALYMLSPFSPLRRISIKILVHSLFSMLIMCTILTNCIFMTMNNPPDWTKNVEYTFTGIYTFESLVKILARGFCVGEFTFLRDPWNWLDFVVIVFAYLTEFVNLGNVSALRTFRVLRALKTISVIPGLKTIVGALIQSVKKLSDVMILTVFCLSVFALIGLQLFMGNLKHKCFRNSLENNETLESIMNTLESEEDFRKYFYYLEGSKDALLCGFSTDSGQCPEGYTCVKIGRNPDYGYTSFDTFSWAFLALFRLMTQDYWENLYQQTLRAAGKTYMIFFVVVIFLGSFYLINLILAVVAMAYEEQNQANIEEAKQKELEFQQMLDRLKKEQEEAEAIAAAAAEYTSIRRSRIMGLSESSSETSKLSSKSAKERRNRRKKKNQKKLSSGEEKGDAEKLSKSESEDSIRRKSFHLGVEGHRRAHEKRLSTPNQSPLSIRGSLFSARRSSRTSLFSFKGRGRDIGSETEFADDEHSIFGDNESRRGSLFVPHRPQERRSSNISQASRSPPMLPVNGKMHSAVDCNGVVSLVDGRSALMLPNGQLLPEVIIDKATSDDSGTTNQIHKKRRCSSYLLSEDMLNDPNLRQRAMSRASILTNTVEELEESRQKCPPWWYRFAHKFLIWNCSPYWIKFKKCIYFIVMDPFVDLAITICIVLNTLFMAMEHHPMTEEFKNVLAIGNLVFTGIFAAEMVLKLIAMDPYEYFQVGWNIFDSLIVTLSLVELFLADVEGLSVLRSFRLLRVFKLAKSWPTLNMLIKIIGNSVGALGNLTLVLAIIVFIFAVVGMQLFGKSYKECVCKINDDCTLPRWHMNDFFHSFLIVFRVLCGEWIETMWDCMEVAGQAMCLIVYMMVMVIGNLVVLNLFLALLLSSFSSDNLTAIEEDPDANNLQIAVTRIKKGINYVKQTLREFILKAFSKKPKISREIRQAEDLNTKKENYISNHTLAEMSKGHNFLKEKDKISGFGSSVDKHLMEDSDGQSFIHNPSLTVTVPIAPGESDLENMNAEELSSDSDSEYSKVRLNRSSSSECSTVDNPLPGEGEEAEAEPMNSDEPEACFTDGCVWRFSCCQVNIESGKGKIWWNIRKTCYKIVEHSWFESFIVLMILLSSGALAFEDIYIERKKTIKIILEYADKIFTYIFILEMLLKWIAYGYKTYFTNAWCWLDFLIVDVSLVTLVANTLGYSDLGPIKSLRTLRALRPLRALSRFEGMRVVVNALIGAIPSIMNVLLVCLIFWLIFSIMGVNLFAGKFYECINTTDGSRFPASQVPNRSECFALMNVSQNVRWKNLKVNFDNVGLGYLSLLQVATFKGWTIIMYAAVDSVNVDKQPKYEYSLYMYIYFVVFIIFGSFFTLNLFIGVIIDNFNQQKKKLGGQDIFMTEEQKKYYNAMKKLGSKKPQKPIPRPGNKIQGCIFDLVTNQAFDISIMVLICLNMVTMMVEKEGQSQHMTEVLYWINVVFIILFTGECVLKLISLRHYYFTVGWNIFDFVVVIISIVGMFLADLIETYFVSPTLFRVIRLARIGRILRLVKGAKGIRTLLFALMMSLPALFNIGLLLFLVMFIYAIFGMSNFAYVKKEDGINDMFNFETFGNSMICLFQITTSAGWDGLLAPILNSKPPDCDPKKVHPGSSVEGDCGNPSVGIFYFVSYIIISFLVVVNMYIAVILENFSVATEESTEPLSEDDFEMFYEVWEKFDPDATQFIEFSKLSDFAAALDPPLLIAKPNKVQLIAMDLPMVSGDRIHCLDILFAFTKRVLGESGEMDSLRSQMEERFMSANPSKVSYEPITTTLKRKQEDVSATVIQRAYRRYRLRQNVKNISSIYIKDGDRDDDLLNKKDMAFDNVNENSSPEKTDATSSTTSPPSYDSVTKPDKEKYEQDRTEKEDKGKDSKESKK
Nature of the experiment: QPatch NaV1.7 assay (whole-cell patch clamp, QPatch16x). Format: cell-based. The conditions noted are these: HEK293-hNaV1.7 cells. The gist of the method:
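HEK293 cells expressing hNaV1.7 recorded by automated whole-cell patch clamp (CsF internal, pH 7.3). Peak currents from 20 ms steps to 0 mV measured at holding potentials of −90 mV and V1/2 SSI; four-point cumulative concentrations, 120 s each, Hill fits gave pIC50 at each potential.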
A general note: In patch-clamp work, channel activity is measured electrically.

[1] abbreviates: holding voltage V1/2 SSI (half of channels inactivated), read-out: QP Nav1.7 SSI vhalf pIC50 (converted).
[2] abbreviates: holding voltage −90 mV (most channels closed), read-out: QP Nav1.7 −90 mV pIC50 (converted).

`CCOc1ccc(F)c(-c2cc(C(C)C)nc([C@H]3CC[C@]4(CCN(C)C4=O)N3)c2)c1` [Example 234, (2R,5R)-2-[4-(5-Ethoxy-2-fluoro-phenyl)-6-isopropyl-2-pyridyl]-7-methyl-1,7-diazaspiro[4.4]nonan-6-one hydrochloride]: the IC50 under setting [1] is 0.0501 µM and the IC50 under setting [2] was 1 µM.

Turning to `CCOc1ccc(F)c(-c2cc(C(C)C)nc([C@@H]3CC[C@]4(CCN(C)C4=O)N3)c2)c1` [Example 235, (2S,5R)-2-[4-(5-Ethoxy-2-fluoro-phenyl)-6-isopropyl-2-pyridyl]-7-methyl-1,7-diazaspiro[4.4]nonan-6-one hydrochloride], the IC50 runs as follows: under setting [1], 2 µM; under setting [2], 15.8 µM.

With `CCOc1ccc(F)c(-c2cc(C(C)C)nc([C@@H]3CC[C@@]4(CCN(C)C4=O)N3)c2)c1` [Example 236, (2S,5S)-2-[4-(5-Ethoxy-2-fluoro-phenyl)-6-isopropyl-2-pyridyl]-7-methyl-1,7-diazaspiro[4.4]nonan-6-one hydrochloride], the IC50 under setting [1] was 0.631 µM and the IC50 under setting [2] was 6.31 µM.

Consider `CCOc1ccc(F)c(-c2cc(C(C)C)nc([C@H]3CC[C@@]4(CCN(C)C4=O)N3)c2)c1` [Example 237, (2R,5S)-2-[4-(5-Ethoxy-2-fluoro-phenyl)-6-isopropyl-2-pyridyl]-7-methyl-1,7-diazaspiro[4.4]nonan-6-one hydrochloride], for which the IC50 reads like this: under setting [1], 0.316 µM; under setting [2], 2.51 µM.

For the compound `CCOc1ccc(F)c(-c2cc([C@H]3CC[C@@]4(CCN(C)C4=O)N3)ncc2CC)c1` [Example 241, (2R,5S)-2-[4-(5-Ethoxy-2-fluoro-phenyl)-5-ethyl-2-pyridyl]-7-methyl-1,7-diazaspiro[4.4]nonan-6-one hydrochloride], the IC50 under setting [1] was 15.8 µM and the IC50 under setting [2] is 100 µM.

Take `CCOc1ccc(F)c(-c2cc([C@@H]3CC[C@]4(CCN(C)C4=O)N3)ncc2CC)c1` [Example 242, (2S,5R)-2-[4-(5-Ethoxy-2-fluoro-phenyl)-5-ethyl-2-pyridyl]-7-methyl-1,7-diazaspiro[4.4]nonan-6-one hydrochloride]: the IC50 was 20 µM under setting [1] and 100 µM under setting [2].

`CCOc1ccc(F)c(-c2ccnc([C@H]3CC[C@]4(CC[C@H](C)NC4=O)N3)c2)c1` [Example 243, hydrochloride]: the IC50 under setting [1] was 1.26 µM and the IC50 under setting [2] is 15.8 µM.

Turning to `CCOc1ccc(F)c(-c2ccnc([C@@H]3CC[C@]4(CC[C@H](C)NC4=O)N3)c2)c1` [Example 244, hydrochloride], the IC50 was 3.16 µM under setting [1] and 39.8 µM under setting [2].

In the case of `CCOc1ccc(F)c(-c2ccnc([C@H]3CC[C@@]4(CC[C@H](C)NC4=O)N3)c2)c1` [Example 246, hydrochloride], the IC50 is 1 µM under setting [1] and 15.8 µM under setting [2].

For `CCOc1ccc(F)c(-c2cc(OC)nc([C@@H]3CC[C@@]4(CCN(C)C4=O)N3)c2)c1` [Example 249, (2S,5S)-2-[4-(5-Ethoxy-2-fluoro-phenyl)-6-methoxy-2-pyridyl]-7-methyl-1,7-diazaspiro[4.4]nonan-6-one hydrochloride], the IC50 runs as follows: under setting [1], 1.26 µM; under setting [2], 15.8 µM.

Consider `CCOc1ccc(F)c(-c2cc(OC)nc([C@H]3CC[C@@]4(CCN(C)C4=O)N3)c2)c1` [Example 250, (2R,5S)-2-[4-(5-Ethoxy-2-fluoro-phenyl)-6-methoxy-2-pyridyl]-7-methyl-1,7-diazaspiro[4.4]nonan-6-one hydrochloride], for which the IC50 by setting is: under setting [1], 1.26 µM; under setting [2], 20 µM.

As to `CN1CC[C@@]2(CC[C@H](c3cc(-c4cc(OCCF)ccc4F)ccn3)N2)C1=O` [Example 251, (2R,5S)-2-[4-[2-Fluoro-5-(2-fluoroethoxyl)phenyl]-2-pyridyl]-7-methyl-1,7-diazaspiro[4.4]nonan-6-one hydrochloride], the IC50 by setting is: under setting [1], 39.8 µM; under setting [2], 398 µM.

On to `CN1CC[C@@]2(CC[C@H](c3cc(-c4cc(OCC(F)F)ccc4F)ccn3)N2)C1=O` [Example 252, (2R,5S)-2-[4-[5-(2,2-Difluoroethoxy)-2-fluoro-phenyl]-2-pyridyl]-7-methyl-1,7-diazaspiro[4.4]nonan-6-one hydrochloride], for which the IC50 under setting [1] was 12.6 µM and the IC50 under setting [2] was 79.4 µM.

In the case of `CC(C)COc1ccc(F)c(-c2ccnc([C@H]3CC[C@@]4(CCN(C)C4=O)N3)c2)c1` [Example 253, (2R,5S)-2-[4-(2-Fluoro-5-isobutoxy-phenyl)-2-pyridyl]-7-methyl-1,7-diazaspiro[4.4]nonan-6-one hydrochloride], the IC50 was 0.0794 µM under setting [1] and 3.16 µM under setting [2].

On to `Cl.[2H]C([2H])(C)Oc1ccc(F)c(-c2ccnc([C@H]3CC[C@@]4(CCN(C)C4=O)N3)c2)c1` [Example 254, (2R,5S)-2-[4-[5-(1,1-Dideuterioethoxy)-2-fluoro-phenyl]-2-pyridyl]-7-methyl-1,7-diazaspiro[4.4]nonan-6-one hydrochloride], for which the IC50 was 6.31 µM under setting [1] and 50.1 µM under setting [2].

As to `CC(Oc1ccc(F)c(-c2ccnc([C@H]3CC[C@@]4(CCN(C)C4=O)N3)c2)c1)C1CC1` (stereo partly drawn) [Example 255, (2R,5S)-2-[4-[5-(1-(Cyclopropyl)ethoxy)-2-fluoro-phenyl]-2-pyridyl]-7-methyl-1,7-diazaspiro[4.4]nonan-6-one hydrochloride], the IC50 by setting is: under setting [1], 10 µM; under setting [2], 100 µM.

On to `CCC(=O)c1ccc(F)c(-c2ccnc([C@H]3CC[C@@]4(CCN(C)C4=O)N3)c2)c1` [Example 257, (2R,5S)-2-[4-(2-Fluoro-5-propanoyl-phenyl)-2-pyridyl]-7-methyl-1,7-diazaspiro[4.4]nonan-6-one hydrochloride], for which the IC50 was 63.1 µM under setting [1] and 2510 µM under setting [2].

As to `CCn1ncc2cc(F)c(-c3ccnc([C@H]4CC[C@@]5(CCN(C)C5=O)N4)c3)cc21` [Example 258, (2R,5S)-2-[4-(1-Ethyl-5-fluoro-indazol-6-yl)-2-pyridyl]-7-methyl-1,7-diazaspiro[4.4]nonan-6-one hydrochloride], the IC50 under setting [1] was 31.6 µM and the IC50 under setting [2] was 39800 µM.

For the compound `CCn1cc2cc(F)c(-c3ccnc([C@H]4CC[C@@]5(CCN(C)C5=O)N4)c3)cc2n1` [Example 259, (2R,5S)-2-[4-(2-Ethyl-5-fluoro-indazol-6-yl)-2-pyridyl]-7-methyl-1,7-diazaspiro[4.4]nonan-6-one hydrochloride], the IC50 by setting is: under setting [1], 1260 µM; under setting [2], 158 µM.
